System: lysosomes
Assay: Immunofluorescence staining of lysosomes (LAMP1) and mitochondria (Tom20)
Assay type: cell-based, human
Conditions: U87-MG, 2 μM, 16 h
Protocol: U87-MG cells were plated at a concentration of 50,000 cells/well onto precoated poly-D-lysine (PDL) coverslips (Neuvitro) in 24-well plates (Falcon) and allowed to adhere overnight. Medium was removed and replaced with treatment-laced media normalized to DMSO, and cells were treated for the indicated timepoints. At the time of collection, cells were washed with PBS and fixed with 4% paraformaldehyde without methanol (EMS) or 100% methanol (Fischer). Coverslips were washed with Tween20-containing PBS (PBST; Fischer). Following permeabilization with 0.5% Triton X-100 in PBS (Fischer), coverslips were blocked for 1 h at room temperature in IF Buffer (0.05% azide, 0.2% Triton X-100, 2% Normal Goat Serum or, for 8-OHG, Normal Donkey Serum). The following primary antibodies were used for 1 hour at room temperature unless specified: AlexaFluor 488 pre-conjugated anti-γ-H2AX (N1-431) mouse monoclonal (30 minutes; BD Biosciences), anti-cleaved caspase 3 (Asp175) rabbit polyclonal (Cell Signaling), anti-SQSTM1/p62 (D-3) mouse monoclonal (Santa Cruz), anti-8-Hydroxyguanosine goat polyclonal (1:200; Millipore), anti-LAMP1 (D4O1S) mouse monoclonal (O/N at 4° C.; Cell Signaling), anti-BNIP3L/Nix (D4R4B) rabbit monoclonal (O/N at 4° C.; Cell Signaling), anti-FLAG (M2) mouse monoclonal (2 hours at 37° C.; Sigma-Aldrich). Following washes with PBST, cells were stained with goat anti-rabbit or goat anti-mouse AlexaFluor 488 or AlexaFluor 594 (or, for 8-OHG, donkey anti-goat AlexaFluor 488) secondary antibody at 1:800 for 1 hour at room temperature (Jackson ImmunoResearch). […]
All confocal images were acquired on a Nikon AIRSi confocal microscope equipped with a 60× 1.4 NA oil objective, a DU4 detector unit, and Nikon Elements software. Otherwise, images were acquired on a Zeiss Axio Imager.Z1 equipped with a Zeiss EC Plan-NEOFLUAR 40× 1.3 NA oil objective, a Zeiss AxioCam MRm camera, a Lumen Dynamics Series 120 Q X-Cite Fluorescence Illuminator, and AxioVision SE64 Rel. […]

Q: Which localization of lysosomes (LAMP1) does the source give for Cn1cnnc1S/C=C/C(=O)c1ccc(F)cc1 [Y102] here?
A: perinuclear region

Q: What about the lysosome expression (LAMP1) of the same compound?
A: increase

Q: And the “colocalization between lysosomes and mitochondria” value (LAMP1/Tom20, ratiometric analysis, confocal)?
A: observed

Source: patent publication US20220326218A1, “COMPOSITION AND METHOD FOR INHIBITING BORC COMPLEX TO TREAT CANCERS WITH NF1 DEFICIENCY AND DYSREGULATED RAS SIGNALING” (THE TRUSTEES OF DARTMOUTH COLLEGE, priority 2019, published 2022)
